Assay results from paper PMC6373163, “Potential in vitro anti-allergic, anti-inflammatory and cytotoxic activities of ethanolic extract of Baliospermum montanum root, its major components and a validated HPLC method” (BMC Complementary and Alternative Medicine, 2019).
Converted amounts (≈) assume the structure as drawn.

Legend:
[1] = system: β-hexosaminidase released from RBL-2H3 cells; assay: Inhibition of β-hexosaminidase release from IgE-sensitized, DNP-BSA-stimulated RBL-2H3 cells (anti-allergic activity); format: cell-based; settings: Rattus norvegicus, 100 μg/ml, mean ± SD, triplicate
[2] = system: β-hexosaminidase released from RBL-2H3 cells; assay: as above; format: cell-based, rat; settings: for inhibition at 1 µg/mL / inhibition at 10 µg/mL / inhibition at 50 µg/mL / IC50 / inhibition at 0.1 µg/mL: Rattus norvegicus, mean ± SD, triplicate; for inhibition at 1 µg/mL: 1 μg/ml; for inhibition at 10 µg/mL: 10 μg/ml; for inhibition at 50 µg/mL: 50 μg/ml; for inhibition at 0.1 µg/mL: 0.1 μg/ml
Protocol: Inhibitory activity on β-hexosaminidase released from rat basophilic leukemia cells (RBL-2H3) was evaluated following the report of Juckmetha and co-workers. RBL-2H3 cells were cultured in MEM supplemented with 15% FBS, penicillin/streptomycin (each 100 μg/mL). Cells were seeded in 24-well plate with the concentration of 5 × 10^5 cells/well and incubated in 5% CO2 at 37 °C for 1.5 h. RBL-2H3 were sensitized with 0.45 μg/mL of Anti-DNP IgE and incubated at 37 °C in 5% CO2 for 24 h. Cells were then washed with 400 μL of Siraganian buffer (Buffer A) [119 mM NaCl, 5 mM KCl, 5.6 mM glucose, 0.4 mM MgCl2, 1 mM CaCl2, 25 mM piperazine-N,N′-bis (2-ethanesulfonic acid) (PIPES), 0.1% BSA, and 40 mM NaOH, pH 7.2]. Subsequently, 160 μL of buffer A was added into the wells and incubated at 37 °C for 10 min. The stock solution of the sample was diluted in DMSO and the working samples were diluted with buffer A. The concentrations of the working samples were 0.1 μg/mL, 1 μg/mL, 10 μg/mL and 50 μg/mL. The serially diluted samples (20 μL) were added to each well and incubated for 10 min. The reaction of antigen-antibody was obtained by adding 20 μL of antigen (DNP-BSA) to produce a final concentration of 10 μg/mL and incubated at 37 °C for 20 min. The amount of β-hexosaminidase released from the degranulation was determined by adding 50 μL of the substrate, PNAG (1 mM in 0.1 M citrate buffer, pH 4.5). The enzyme reaction was stopped by adding 200 μL of 0.1 M carbonate buffer pH 10.0. The product of enzyme reaction, p-nitrophenol, was analyzed by measuring absorbance at wavelength 405 nm. Chlorpheniramine was used as positive control. The percentage of inhibition was calculated by the following equation. Inhibition%=1−T−B−N/C−B−N×100
Where • C = Optical density of control: [+] DNP-BSA, [−] Test sample; • T = Optical density of test sample: [+] DNP-BSA, [+] Test sample; • B = Optical density of blank: […], [+] Test sample; • N = Optical density of normal: [−] DNP-BSA, [−] Test sample.

HepG2 = assay: Cytotoxic activity by sulforhodamine B (SRB) assay, HepG2; format: cell-based; settings: for Selective index: HaCaT versus HepG2; for IC50: Homo sapiens, HepG2, SRB, 72 h exposure, 72 h recovery
Protocol: (§1) The crude extracts and isolated compounds were evaluated for cytotoxic activity by using sulforhodamine B (SRB) assay against two cancerous liver cells (HepG2 and KKU-M156) and a normal cells (HaCaT). The SRB protocol has been described previously. HepG2 was cultured in MEM; KKU-M156 was cultured in HAM F-12 media and HaCaT was cultured in DMEM. All cultured media were supplemented with 10% FBS, penicillin/streptomycin (each 100 units/mL). All cells were incubated in 5% CO2 at 37 °C with 95% humidity. Based on the growth curve, each cell was seeded into 96-well plate (100 μL per well) with optimal density (HepG2: 3 × 10^3 cells per well, KKU-M156: 2 × 10^3 cells per well and HaCaT: 8 × 10^3 cells per well). Seeded cells were incubated at 37 °C in a 5% CO2 with 95% humidity for 24 h. Cells were then treated with 100 μL of different concentrations of sample solution (0.1 μg/mL, 1 μg/mL, 10 μg/mL and 50 μg/mL). DMSO at the same concentration as the sample (2% v/v) was used as the control solvent. Cell cultures were incubated for the exposure time of 72 h. After the exposure time, the medium was removed and the plate was washed with 200 μL phosphate buffer saline (PBS) and 200 μL fresh medium was added into each well. The plates were then incubated for 72 h for the recovery period. The cells were then fixed by adding 100 μL of 40% trichloroacetic acid and the plates left at 4 °C for 45 min. After the plates were washed, 50 μL of SRB solution (0.4% w/v in acetic acid) was added into each well and the cells were allowed to be strained for 30 min. The stained cells were dissolved by using 100 μL of 10 mM Tris base pH 10.5. The %inhibition was calculated using the following equation. Inhibition%=ODcontrol‐ODsample/ODcontrol×100

KKU-M156 = assay: Cytotoxic activity by sulforhodamine B (SRB) assay, KKU-M156; format: cell-based; settings: for Selective index: HaCaT versus KKU-M156; for IC50: KKU-M156, SRB, 72 h exposure, 72 h recovery
Protocol: as §1

[3] = Cytotoxic activity by sulforhodamine B (SRB) assay, normal cells HaCaT; format: cell-based; settings: human, 72 h exposure, 72 h recovery
Protocol: as §1

[4] = Viability of LPS-treated RAW 264.7 cells (MTT); format: cell-based, murine; settings: mouse
Protocol: The viability of the LPS treated RAW 264.7 cells were colorimetrically determined by using 3-(4, 5-dimethyl-2-thiazolyl)-2, 5-diphenyl-2H-tetrazolium bromide (MTT) method. MTT solution (10 μL) was added into each well and the plate was incubated for 2 h. The remained formazan crystal in each well, after removing the medium, was dissolved by 0.04 M HCl in isopropanol (100 μL). The optical density was measured by using microplate reader at wavelength 570 nm.

[5] = system: NO production of LPS-induced RAW 264.7 cells; assay: Inhibition of NO production in LPS-induced RAW 264.7 cells (Griess reagent); format: cell-based, murine; settings: Mus musculus; for inhibition at 0.1 µg/mL: RAW264.7, 0.1 μg/mL; for inhibition at 0.1 µg/mL / inhibition at 1 µg/mL / inhibition at 10 µg/mL / inhibition at 50 µg/mL: mean ± SD, read-out: %Inhibition of LPS-induced nitric oxide release; for inhibition at 1 µg/mL: RAW264.7, 1 μg/mL; for inhibition at 10 µg/mL: RAW264.7, 10 μg/mL; for inhibition at 50 µg/mL: RAW264.7, 50 μg/mL; for IC50: RAW264.7, mean ± SD, triplicate, read-out: IC50, LPS-induced nitric oxide release
Protocol: The inhibitory activity of crude extracts and isolated compounds on NO production of LPS-induced RAW 264.7 cells was investigated according to a previously reported method. RAW 264.7 cells were cultured in RPMI medium supplemented with 10% FBS, penicillin/streptomycin (each 100 units/mL) and incubated at 37 °C in 5% CO2 with 95% humidity. The cells were seeded into 96-well plate (1 × 10^5 cells per well) and incubated for 24 h. Subsequently, the cells were induced by LPS at the final concentration of 2 ng/mL and the serially diluted samples (0.1 μg/mL, 1 μg/mL, 10 μg/mL and 50 μg/mL) were added. The plate was incubated for 24 h before being tested for NO accumulation and cell viability. Prednisolone was used as positive control. The accumulated NO released from the LPS-induced RAW 264.7 cells was determined by using Griess’s reagent (1% sulfanilamide and 0.1% N-(1- naphthyl) ethylenediamine dihydrochloride in 2.5% phosphoric acid). The supernatant in each well (100 μL) was transferred to another 96-well plate and 100 μL of Griess’s reagent was added. The optical density of reaction was measured at 570 nm. The inhibitory activity (%) of NO production was calculated by the following equation and the IC50 values were calculated. Inhibition%=ODcontrol‐ODsample/ODcontrol×100

[6] = system: NO production of LPS-induced RAW 264.7 cells; assay: as above; format: cell-based, murine; settings: Mus musculus, RAW264.7, 0.01 μg/mL, mean ± SD, read-out: %Inhibition of LPS-induced nitric oxide release

| SMILES | inhibition at 1 µg/mL [2] [%] | inhibition at 10 µg/mL [2] [%] | inhibition at 50 µg/mL [2] [%] | IC50 [2] [µg/mL] | Selective index (HepG2) | IC50 (HepG2) [µg/mL] | Selective index (KKU-M156) | IC50 (KKU-M156) [µg/mL] | IC50 at 72 h [3] [µg/mL] | viability at 0.1 μg/mL [4] [%] | viability at 1 μg/mL [4] [%] | viability at 10 μg/mL [4] [%] | viability at 50 μg/mL [4] [%] | inhibition at 0.1 µg/mL [5] [%] | inhibition at 1 µg/mL [5] [%] | inhibition at 10 µg/mL [5] [%] | inhibition at 50 µg/mL [5] [%] | IC50 [5] [µg/mL] | inhibition at 0.1 µg/mL [2] [%] | further results |
| --- | --- | --- | --- | --- | --- | --- | --- | --- | --- | --- | --- | --- | --- | --- | --- | --- | --- | --- | --- | --- |
| CN(C)CCC(c1ccc(Cl)cc1)c1ccccn1 (centres unmarked) [Chlorpheniramine, reference compound] | 14.9 ± 1.57 | 36.2 ± 2.84 | 71.4 ± 11 | 17.7 ± 1.61 | – | – | – | – | – | – | – | – | – | – | – | – | – | – | – | inhibition at 100 µg/mL [1]: 81.3 ± 9.51% |
| CCC(=O)c1ccc(OC)c(OC)c1 [Compound 1, 1-(3′,4′-dimethoxyphenyl) propan-1-one] | 4.84 ± 3.46 | 29.4 ± 2.01 | 77.7 ± 3.6 | 21.2 ± 2.01 | > 1.15 | 87.1 ± 1.36 (≈ 448 µM) | > 1.71 | 58.3 ± 5.95 (≈ 300 µM) | > 100 | 84.7 | 89.7 | 84.7 | 80.5 | 2.66 ± 0.23 | 3.91 ± 3.03 | 14.4 ± 1.71 | 69.2 ± 2.49 | 40.4 ± 1.32 (≈ 208 µM) | -7.88 ± 3.01 | – |
| CCC(=O)c1cc(OC)c(OC)c(OC)c1 [Compound 2, 1-(3′,4′,5′-trimethoxyphenyl) propan-1-one] | 15.1 ± 1.71 | 30.4 ± 6.7 | 75.2 ± 6.47 | 26.2 ± 6.06 | > 2.10 | 47.6 ± 1.2 (≈ 212 µM) | > 1.04 | 95.65 ± 0.48 (≈ 427 µM) | > 100 | 94.5 | 88.8 | 80.8 | 90.4 | 7.09 ± 6.86 | 11.1 ± 9.89 | 8.69 ± 6.93 | 58.8 ± 3.59 | 33.6 ± 5.25 (≈ 150 µM) | -5.37 ± 2.3 | – |
| CCC(=O)c1cc(OC)c(OC)cc1O [Compound 3, 1-(2′-hydroxy-4′, 5′-dimethoxyphenyl) propan-1-one] | 8.52 ± 2.93 | 17.4 ± 5.72 | 60.8 ± 8.98 | 44.4 ± 7.33 | > 1.11 | 90.3 ± 5.65 (≈ 430 µM) | > 1.20 | 83.4 ± 5.2 (≈ 397 µM) | > 100 | 102 | 97 | 97.3 | 91.6 | -0.82 ± 3.26 | 2.64 ± 0.31 | 14.6 ± 3.43 | 34.4 ± 3.07 | > 50 | -14.2 ± 5.67 | anti-allergic activity (in words) ([2]; judged from IC50): moderate activity |
| C[C@]12C=CC(=O)C=C1CC[C@@H]1[C@@H]2[C@@H](O)C[C@@]2(C)[C@H]1CC[C@]2(O)C(=O)CO [Prednisolone, reference compound] | – | – | – | – | – | – | – | – | – | 84.3 | 89.5 | 80.8 | – | 47.7 ± 6.24 | 69.9 ± 3.76 | 77.9 ± 8.12 | – | 0.11 ± 0.02 (≈ 0.305 µM) | – | inhibition at 0.01 µg/mL [6]: 19.8 ± 3.43%; viability at 0.01 μg/mL ([4]; 0.01 μg/mL): 100% |
| CC[C@]1(O)C[C@H]2CN(CCc3c([nH]c4ccccc34)[C@@](C(=O)OC)(c3cc4c(cc3OC)N(C=O)[C@H]3[C@@](O)(C(=O)OC)[C@H](OC(C)=O)[C@]5(CC)C=CCN6CC[C@]43[C@@H]65)C2)C1 [Vincristine, reference compound] | – | – | – | – | < 0.008 | 0.013 ± 0.0006 (≈ 0.0158 µM) | < 0.033 | 0.003 ± 0.0015 (≈ 0.00364 µM) | < 0.0001 | – | – | – | – | – | – | – | – | – | – | – |
